Assay [1] addresses T1, LRRK2, LRRK2 (G2019S), DYRK1, CLK1 and TTK kinases (Homo sapiens, UniProt P49759).
T1 construct: CLK1 IC50 (marked with *); other: CLK1; Kinase HotSpot service (Reaction Biology), ATP 10 uM
The assay is described as follows: Enzyme IC50 by Kinase HotSpot service (Reaction Biology Corporation), values marked with *. The conditions noted are these: CLK1, ATP 10 uM. Format: biochemical. Here is the method:
(§1) Meanwhile, the enzyme IC50 measurement for some compounds was performed using Kinase HotSpot service (Reaction Biology Corporation); during the test, the ATP concentration was 10 uM, where all were conducted under the same condition; and the concentration of the compound was measured by giving a 3-fold concentration gradient with the highest concentration of […], where the values measured using Kinase HotSpot service (Reaction Biology Corporation) were marked with “*”.
(§2) All experimental methods were performed as provided in Kinase HotSpot Customer Protocol (http://www.reactionbiology.com//Kinase_Assay_Protocol).
(§3) In the table below, the following designations were used for the evaluation of enzyme inhibitory ability.

In assay [2] the target is T2, LRRK2, LRRK2 (G2019S), DYRK1, CLK1 and TTK kinases (Homo sapiens, UniProt Q13627).
T2 construct: other: DYRK1; Kinase HotSpot service (Reaction Biology), ATP 10 uM
The description is as above. The note with it: DYRK1, ATP 10 uM. Format: biochemical. The procedure: as §1, §2, §3

The target of assay [3] is T3, LRRK2, LRRK2 (G2019S), DYRK1, CLK1 and TTK kinases (Homo sapiens, UniProt Q5S007).
T3 construct: LRRK2 IC50 (marked with *); other: LRRK2; Kinase HotSpot service (Reaction Biology), ATP 10 uM
Described as above. It is filed as biochemical. The note with it: LRRK2, ATP 10 uM. Here is the method:
as §1, §2, §3

In the next assay the test system is MDA-MB-231 cell line. The assay is described as follows: MDA-MB-231 cancer cell proliferation inhibition (Cell Titer-Glo). It is filed as cell-based. The conditions noted are these: Homo sapiens, MDA-MB-231 triple-negative breast cancer cell line, 72 hours. The procedure, abridged:
(§4)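 GI50 comes from CellTiter-Glo luminescence, read 10 min after reagent addition at RT, following 72 h compound treatment. Eleven concentrations were used (⅓ steps, highest 10 μM final) on 2000 cells/well. MDA-MB-231 and MDA-MB-468 were grown in DMEM, SHP-77 in RPMI.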
On the technique in general: ATP-based viability assays read luminescence as a measure of living cells.

The subject of a further assay is SHP-77. The assay is described as follows: SHP-77 cancer cell proliferation inhibition (Cell Titer-Glo). The conditions noted are these: Homo sapiens, SHP77, SHP-77 small cell lung cancer cell line, 72 hours. It is filed as cell-based. The procedure, abridged: as §4
In a further assay the test system is human DYRK1A and Tau. The assay is described as follows: Tau phosphorylation inhibition, ClariCELL Kinase Cell-Based Assay (Carnabio). The essentials: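 HEK293 cells transiently expressing human DYRK1A and Tau were exposed to compound, then lysed. Released Tau was captured on plate and its phosphorylation quantified by ELISA with a phospho-Tau-specific antibody.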

In a further assay the target is LRRK2 (G2019S) (Homo sapiens, UniProt Q5S007, G2019S). The assay is described as follows: LRRK2 G2019S enzyme inhibition, ADP-Glo kinase assay. Further details: purchased SignalChem L10-12GG. It is filed as biochemical. The essentials:
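Activity read as ADP-Glo luminescence, normalized to untreated solvent control, with IC50 (nM) fitted over 12 final compound levels (top 50 μM). Reaction: 2 h, 25° C, human LRRK2 G2019S 16 ng, ATP 25 μM, substrate 0.2 μg, in Tris-HCl pH 7.4 with MgCl2, BSA and DTT.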
On the technique in general: ADP-Glo first removes unused ATP, then detects ADP through luciferase.

The target in assay [4] is T4, human GST-DYRK1A (full length) (Homo sapiens, UniProt Q13627).
T4 construct: purified human GST-DYRK1A (full length, Thermo scientifics) enzyme; GST; purchased Thermo scientifics
Put plainly: GST-DYRK1A enzyme inhibition, ADP-Glo kinase assay. It is filed as biochemical. The conditions noted are these: read-out: DYRK1 IC50. The essentials:
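ADP-Glo luminescence quantified kinase activity after a 1 h, 25° C reaction of 10 ng full-length GST-tagged human DYRK1A, substrate and 10 uM ATP in Tris-HCl buffer pH 7.4 with MgCl2, BSA and DTT. Triplicate IC50 values (nM) calculated relative to untreated solvent control.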

For another assay, the target named is T5, human GST-CLK1 (129-end) (Homo sapiens, UniProt P49759).
T5 construct: purified human GST-CLK1 (129-end, Signalchem) enzyme; GST; purchased Signalchem
The assay is described as follows: GST-CLK1 enzyme inhibition, ADP-Glo kinase assay. The conditions noted are these: ATP 10 uM. Format: biochemical. The procedure, abridged:
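ADP formation was read by ADP-Glo luminescence after 1 h at 25° C with 3 ng human GST-CLK1 (129-end), substrate and 10 uM ATP in Tris pH 7.4 buffer containing MgCl2, BSA and DTT. Inhibition relative to untreated solvent control gave IC50 (nM), run in triplicate.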

The next assay concerns MDA-MB-468 cell line. Put plainly: MDA-MB-468 cancer cell proliferation inhibition (Cell Titer-Glo). The conditions noted are these: Homo sapiens, MDA-MB-468 triple-negative breast cancer cell line, 72 hours. It is filed as cell-based. The procedure:
In order to evaluate the cancer cell proliferation inhibitory activity of the compounds of the present invention, the following experiments were performed.
To evaluate the cancer cell proliferation inhibitory effect, the cell growth rate analysis was performed while culturing MDA-MB-231 cell line (Korean Cell Line Bank #30026) and MDA-MB-468 cell line as the triple-negative breast cancer cell line, and SHP-77 (ATCC #CRL-2195) as the small cell lung cancer cell line in DMEM (HyClone #SH30243) and RPMI medium (HyClone #SH3027.01), respectively. More specifically, the cell lines were each plated at 2000 cells/100 μl in each well of a 96-well flat-bottom plate (coming #3903), and then the example compounds having eleven concentrations which were diluted by ⅓ so that the final concentrations were 10.000000, 3.333333, 1.111111, 0.370370, 0.123457, 0.041152, 0.013717, 0.004572, 0.001524, 0.000508 and 0.000169 μM were treated. After 72 hours, 100 μl of Cell Titer-Glo (Promega G7573) was treated, incubated at RT for 10 minutes, and then luminescence was measured using a microplate reader. The measured luminescence degree was calculated as GI50 using Prism (version 8.2 GraphPad) software.
In the table below, the following designations were used for the evaluation of proliferation inhibitory activity.

The target in the next assay is T6, TTK (Homo sapiens, UniProt P33981).
T6 sequence (P33981 1-857): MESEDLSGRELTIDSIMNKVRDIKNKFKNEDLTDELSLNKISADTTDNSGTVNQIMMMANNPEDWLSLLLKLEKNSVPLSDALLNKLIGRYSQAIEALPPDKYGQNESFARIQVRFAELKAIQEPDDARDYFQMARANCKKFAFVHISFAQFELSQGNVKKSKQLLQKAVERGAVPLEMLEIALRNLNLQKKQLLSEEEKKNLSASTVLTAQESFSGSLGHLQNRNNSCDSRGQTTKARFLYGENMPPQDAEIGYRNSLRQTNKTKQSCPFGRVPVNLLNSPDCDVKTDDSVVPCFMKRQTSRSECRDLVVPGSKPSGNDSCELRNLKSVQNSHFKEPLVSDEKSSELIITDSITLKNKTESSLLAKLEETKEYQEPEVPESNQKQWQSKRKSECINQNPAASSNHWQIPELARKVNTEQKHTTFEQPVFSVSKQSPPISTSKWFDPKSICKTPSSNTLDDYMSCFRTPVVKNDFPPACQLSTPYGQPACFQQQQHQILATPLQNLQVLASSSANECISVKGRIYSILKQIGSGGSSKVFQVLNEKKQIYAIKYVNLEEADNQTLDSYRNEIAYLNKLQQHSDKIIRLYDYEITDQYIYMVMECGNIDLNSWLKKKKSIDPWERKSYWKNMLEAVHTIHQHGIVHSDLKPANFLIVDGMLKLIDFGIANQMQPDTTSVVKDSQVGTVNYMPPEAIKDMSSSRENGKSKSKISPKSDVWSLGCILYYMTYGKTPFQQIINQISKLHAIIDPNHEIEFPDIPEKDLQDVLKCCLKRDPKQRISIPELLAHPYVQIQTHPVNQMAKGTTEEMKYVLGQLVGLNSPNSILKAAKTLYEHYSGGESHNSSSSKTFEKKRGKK
Put plainly: TTK enzyme inhibition, ADP-Glo kinase assay. It is filed as biochemical. Further details: purchased Signalchem T20-10G. The note with it: ATP 5 μM. The procedure: In order to evaluate the inhibitory activity of the compounds according to the present invention on LRRK2, LRRK2 (G2019S), DYRK1, CLK1 and TTK kinases, the following experiment was performed.
Example compounds were reacted with the purified human TTK (Signalchem #T20-10G) enzyme to evaluate the enzyme inhibitory ability as follows. The reaction buffer was used as the composition of 40 mM Tris-HCl pH7.4, 20 mM MgCl2, 0.1 mg/ml BSA (5× kinase buffer, Signalchem #K03-09) and 50 μM DTT (Signalchem #D86-09B), and the reaction of all test materials was performed on the reaction buffer. The compound was diluted with 10 mM DMSO stock in […] by a serial dilution method, and the enzyme activity was measured at the final compound concentrations of 1, 0.333333, 0.111111, 0.037037, 0.012346, 0.004115, 0.001372, 0.000457, 0.000152, 0.000051 and 0.000017 μM. In the test, the human TTK (7.5 ng) enzyme was reacted with the purified ATP (5 μM, Promega #V6930) and an MBP enzyme substrate (0.2 μg, Signalchem M42-51N) at 25° C. for 4 hours, and then the enzyme activity was identified using the in vitro ADP-Glo™ kinase assay (Promega #V6930). The enzyme activity reaction liquid, an ADP-Glo reaction liquid and an enzyme potency detection solution were reacted in a ratio of 2:2:1, and the degree of inhibition of enzyme activity was measured by luminescence. The degree of inhibition of enzyme activity according to the treatment concentrations of the respective compounds was calculated based on the luminescence degree of the enzyme activity of a solvent control group that was not treated with the compound, where the concentration of each compound to inhibit enzyme activity inhibition by 50% was determined as an IC50 (nM) value and obtained using Prism (Version 8.2, GraphPad) software.
as §3

T5 sequence (P49759 129-484 limits assumed): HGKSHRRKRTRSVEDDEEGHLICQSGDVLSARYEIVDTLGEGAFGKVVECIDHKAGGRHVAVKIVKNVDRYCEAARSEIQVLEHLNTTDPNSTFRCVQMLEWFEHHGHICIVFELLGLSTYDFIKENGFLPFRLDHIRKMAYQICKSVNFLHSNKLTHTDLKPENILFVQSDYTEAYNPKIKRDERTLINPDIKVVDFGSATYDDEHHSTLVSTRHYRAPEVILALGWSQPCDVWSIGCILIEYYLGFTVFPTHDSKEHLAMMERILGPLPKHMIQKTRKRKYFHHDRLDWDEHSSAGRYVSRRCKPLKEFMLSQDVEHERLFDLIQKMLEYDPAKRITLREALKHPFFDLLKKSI
T1 sequence (P49759 whole entry, stated change not applied): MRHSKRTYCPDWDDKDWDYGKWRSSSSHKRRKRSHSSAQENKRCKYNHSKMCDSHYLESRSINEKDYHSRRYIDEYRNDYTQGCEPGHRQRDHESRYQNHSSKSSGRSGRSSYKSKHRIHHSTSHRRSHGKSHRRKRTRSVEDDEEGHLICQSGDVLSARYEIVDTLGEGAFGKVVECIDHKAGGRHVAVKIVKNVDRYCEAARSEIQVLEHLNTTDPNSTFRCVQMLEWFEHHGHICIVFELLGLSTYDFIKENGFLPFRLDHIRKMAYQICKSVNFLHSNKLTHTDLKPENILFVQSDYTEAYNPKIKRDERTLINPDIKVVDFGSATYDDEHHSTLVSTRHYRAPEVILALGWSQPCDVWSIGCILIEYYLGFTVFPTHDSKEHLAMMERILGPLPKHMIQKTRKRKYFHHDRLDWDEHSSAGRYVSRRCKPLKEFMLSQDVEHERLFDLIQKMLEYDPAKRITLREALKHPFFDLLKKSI
LRRK2 (G2019S), sequence (Q5S007 970-2527 G2019S limits assumed): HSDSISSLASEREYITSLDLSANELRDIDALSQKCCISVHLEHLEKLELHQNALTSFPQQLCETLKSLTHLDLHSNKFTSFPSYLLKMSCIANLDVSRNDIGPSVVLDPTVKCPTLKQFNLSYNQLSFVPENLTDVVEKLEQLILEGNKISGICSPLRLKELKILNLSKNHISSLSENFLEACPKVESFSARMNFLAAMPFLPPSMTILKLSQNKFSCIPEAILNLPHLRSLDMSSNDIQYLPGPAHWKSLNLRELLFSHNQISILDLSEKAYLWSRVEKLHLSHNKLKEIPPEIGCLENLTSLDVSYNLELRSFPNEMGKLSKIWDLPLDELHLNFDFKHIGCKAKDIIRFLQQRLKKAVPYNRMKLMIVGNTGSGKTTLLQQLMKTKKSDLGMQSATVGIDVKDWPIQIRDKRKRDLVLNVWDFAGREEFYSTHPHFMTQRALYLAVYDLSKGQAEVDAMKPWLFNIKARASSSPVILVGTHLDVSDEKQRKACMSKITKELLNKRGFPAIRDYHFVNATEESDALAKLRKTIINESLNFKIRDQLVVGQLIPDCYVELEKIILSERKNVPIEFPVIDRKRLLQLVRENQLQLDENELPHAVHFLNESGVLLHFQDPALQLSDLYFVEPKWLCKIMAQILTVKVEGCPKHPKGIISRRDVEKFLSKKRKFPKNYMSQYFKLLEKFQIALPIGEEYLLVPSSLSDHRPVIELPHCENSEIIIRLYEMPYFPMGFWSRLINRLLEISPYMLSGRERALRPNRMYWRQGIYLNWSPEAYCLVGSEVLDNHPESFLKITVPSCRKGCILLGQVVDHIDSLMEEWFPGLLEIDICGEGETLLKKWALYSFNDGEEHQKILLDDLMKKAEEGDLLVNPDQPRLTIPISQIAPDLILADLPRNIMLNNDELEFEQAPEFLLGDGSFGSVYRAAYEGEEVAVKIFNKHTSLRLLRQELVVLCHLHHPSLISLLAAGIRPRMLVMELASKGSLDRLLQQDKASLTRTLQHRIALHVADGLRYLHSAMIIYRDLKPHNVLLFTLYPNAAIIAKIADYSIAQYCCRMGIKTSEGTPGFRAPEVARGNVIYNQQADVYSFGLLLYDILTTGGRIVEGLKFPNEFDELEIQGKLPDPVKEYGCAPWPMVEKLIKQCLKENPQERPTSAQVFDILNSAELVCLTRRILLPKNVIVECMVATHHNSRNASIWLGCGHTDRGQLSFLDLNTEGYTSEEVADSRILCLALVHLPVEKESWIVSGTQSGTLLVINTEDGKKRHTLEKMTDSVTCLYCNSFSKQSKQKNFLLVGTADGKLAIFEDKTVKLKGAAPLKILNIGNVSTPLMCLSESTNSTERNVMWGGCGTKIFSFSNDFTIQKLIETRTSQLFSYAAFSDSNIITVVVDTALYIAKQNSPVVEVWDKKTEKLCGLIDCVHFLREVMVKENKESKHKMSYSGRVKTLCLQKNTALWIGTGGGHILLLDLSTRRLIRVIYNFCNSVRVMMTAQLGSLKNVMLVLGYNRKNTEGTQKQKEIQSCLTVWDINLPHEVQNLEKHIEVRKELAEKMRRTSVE
T3 sequence (Q5S007 whole entry G2019S): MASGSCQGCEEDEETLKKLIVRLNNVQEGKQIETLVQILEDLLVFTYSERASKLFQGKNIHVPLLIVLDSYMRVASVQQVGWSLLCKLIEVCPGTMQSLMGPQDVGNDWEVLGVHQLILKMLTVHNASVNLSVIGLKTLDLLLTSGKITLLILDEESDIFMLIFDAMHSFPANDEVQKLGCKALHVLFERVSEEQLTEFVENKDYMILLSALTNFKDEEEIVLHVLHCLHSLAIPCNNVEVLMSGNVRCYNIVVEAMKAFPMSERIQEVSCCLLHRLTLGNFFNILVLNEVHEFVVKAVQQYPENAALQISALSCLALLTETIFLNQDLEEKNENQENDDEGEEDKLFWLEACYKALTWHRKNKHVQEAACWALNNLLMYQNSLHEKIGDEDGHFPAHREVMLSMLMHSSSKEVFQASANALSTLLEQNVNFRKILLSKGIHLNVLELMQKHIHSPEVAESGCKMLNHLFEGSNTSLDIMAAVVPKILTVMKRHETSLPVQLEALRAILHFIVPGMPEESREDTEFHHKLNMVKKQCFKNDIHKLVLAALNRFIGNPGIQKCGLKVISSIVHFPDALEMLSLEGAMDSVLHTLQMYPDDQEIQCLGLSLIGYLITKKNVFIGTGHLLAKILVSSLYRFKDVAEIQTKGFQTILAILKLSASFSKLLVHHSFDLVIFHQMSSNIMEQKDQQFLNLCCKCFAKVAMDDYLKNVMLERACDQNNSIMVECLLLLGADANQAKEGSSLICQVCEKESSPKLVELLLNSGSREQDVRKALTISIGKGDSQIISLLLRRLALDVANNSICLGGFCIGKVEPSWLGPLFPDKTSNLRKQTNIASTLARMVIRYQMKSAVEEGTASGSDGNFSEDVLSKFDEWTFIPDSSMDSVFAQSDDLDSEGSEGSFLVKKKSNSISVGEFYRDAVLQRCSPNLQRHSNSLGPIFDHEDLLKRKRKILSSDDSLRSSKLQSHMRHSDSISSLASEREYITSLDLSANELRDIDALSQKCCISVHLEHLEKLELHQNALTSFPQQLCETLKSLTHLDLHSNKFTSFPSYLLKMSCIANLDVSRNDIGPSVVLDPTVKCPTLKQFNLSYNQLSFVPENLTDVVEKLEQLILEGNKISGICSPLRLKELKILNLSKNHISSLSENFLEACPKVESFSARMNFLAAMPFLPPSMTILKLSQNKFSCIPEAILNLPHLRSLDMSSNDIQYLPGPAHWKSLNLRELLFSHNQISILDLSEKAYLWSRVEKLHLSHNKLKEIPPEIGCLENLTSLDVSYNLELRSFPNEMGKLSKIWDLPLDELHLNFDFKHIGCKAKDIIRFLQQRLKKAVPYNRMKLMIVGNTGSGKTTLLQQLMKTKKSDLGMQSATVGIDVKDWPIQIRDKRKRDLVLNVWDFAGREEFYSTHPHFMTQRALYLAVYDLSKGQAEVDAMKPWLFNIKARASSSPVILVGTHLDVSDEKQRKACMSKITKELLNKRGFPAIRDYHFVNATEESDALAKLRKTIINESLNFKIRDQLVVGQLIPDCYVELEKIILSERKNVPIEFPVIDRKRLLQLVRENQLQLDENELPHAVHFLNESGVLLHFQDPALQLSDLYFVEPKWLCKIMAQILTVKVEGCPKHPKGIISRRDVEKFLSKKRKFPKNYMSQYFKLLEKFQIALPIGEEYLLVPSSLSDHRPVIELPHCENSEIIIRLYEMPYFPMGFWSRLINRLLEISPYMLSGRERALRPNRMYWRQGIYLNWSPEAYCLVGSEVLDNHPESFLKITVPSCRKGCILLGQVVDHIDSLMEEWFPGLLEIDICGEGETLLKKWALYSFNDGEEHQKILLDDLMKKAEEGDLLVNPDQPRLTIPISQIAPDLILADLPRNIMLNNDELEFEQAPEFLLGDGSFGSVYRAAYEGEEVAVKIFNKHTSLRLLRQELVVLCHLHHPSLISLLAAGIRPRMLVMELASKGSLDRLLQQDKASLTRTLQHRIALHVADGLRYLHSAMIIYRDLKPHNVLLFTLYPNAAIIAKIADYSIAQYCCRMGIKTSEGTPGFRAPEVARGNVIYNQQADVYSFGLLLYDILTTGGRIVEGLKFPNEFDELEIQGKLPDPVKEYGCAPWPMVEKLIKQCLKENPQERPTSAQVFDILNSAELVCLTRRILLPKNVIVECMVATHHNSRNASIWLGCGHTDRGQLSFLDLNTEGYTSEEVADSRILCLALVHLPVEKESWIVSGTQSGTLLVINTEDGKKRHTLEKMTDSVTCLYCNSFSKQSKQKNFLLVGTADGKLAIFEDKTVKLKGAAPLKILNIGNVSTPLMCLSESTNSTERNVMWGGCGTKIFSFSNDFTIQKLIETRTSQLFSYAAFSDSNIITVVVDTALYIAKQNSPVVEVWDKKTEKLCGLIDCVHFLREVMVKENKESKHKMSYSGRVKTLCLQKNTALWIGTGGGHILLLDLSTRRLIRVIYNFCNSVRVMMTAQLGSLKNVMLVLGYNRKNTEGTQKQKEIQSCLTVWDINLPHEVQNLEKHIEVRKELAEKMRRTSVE

The IC50 is the concentration that gives 50% inhibition. Broadly, the GI50 is the concentration that inhibits growth by half. The inhibition is the drop in the measured response relative to a control, in per cent. Read a low inhibition as a response near the control. Turning to `COc1cc(S(=O)(=O)N2CCC(N3C[C@H]4C[C@@H]3CO4)CC2)ccc1Nc1cc(C2CC2)c2c(C(F)(F)F)c[nH]c2n1` [Example 239, N-(4-((4-((1R,4R)-2-oxa-5-azabicyclo [2.2.1]heptan-5-yl)piperidin-1-yl)sulfonyl)-2-methoxyphenyl)-4-cyclopropyl-3-(trifluoromethyl)-1H-pyrrolo[2,3-b]pyridin-6-amine], the IC50 in [1] was less than 0.1 µM; in [2], less than 0.1 µM; in assay [3] it was less than 0.1 µM; on LRRK2 (G2019S), 0.301 to 1 µM. Also, the GI50 in the assay on MDA-MB-231 cell line and with SHP-77 was 0.301 to 1 µM each time. The inhibition at 0.25 µM in the assay with human DYRK1A and Tau was 22%. Further, in the assay on human DYRK1A and Tau, at 0.5 µM the inhibition was 50.9%. In the assay with human DYRK1A and Tau, this molecule yielded an inhibition at 1 µM of 71.2%.
In the case of `N#Cc1c[nH]c2nc(Nc3ccc(C(=O)N4CCOCC4)c4c3OCCO4)cc(NC3CCCCC3)c12` [Example 150, N^4-(cyclohexylamino)-N^6-((8-(morpholine-4-carbonyl)-2,3-dihydrobenzo [b] [1,4]dioxin-5-yl)amino)-1H-pyrrolo[2,3-b]pyridine-3-carbonitrile], the IC50 (in assay [4]; on human GST-CLK1 (129-end)) was 0.301 to 1 µM each time. The molecule also gave a 50% growth inhibitory concentration (GI50) in the assay on MDA-MB-468 cell line of 0.051 to 0.1 µM.
As for `N#Cc1c[nH]c2nc(Nc3ccc(C(=O)N4CCC(N5CCOCC5)CC4)c4c3OCCO4)cc(NC3CCCCC3)c12` [Example 149, 4-(cyclohexylamino)-6-((8-(4-morpholinopiperidine-1-carbonyl)-2,3-dihydrobenzo [b] [1,4]dioxin-5-yl)amino)-1H-pyrrolo[2,3-b]pyridine-3-carbonitrile], the half-maximal inhibitory concentration (IC50) (in [4]; against human GST-CLK1 (129-end)) was 0.301 to 1 µM throughout. For the same molecule, the GI50 in the assay with MDA-MB-468 cell line is 0.101 to 0.3 µM.
With `O=C(c1ccc(Nc2cc(C3CC3)c3c(C(F)(F)F)c[nH]c3n2)c2c1OCCO2)N1CCN(C2COC2)CC1` [Example 101, (8-((4-cyclopropyl-3-(trifluoromethyl)-1H-pyrrolo[2,3-b]pyridin-6-yl)amino)-2,3-dihydrobenzo[b] [1,4]dioxin-5-yl)(4-(oxetan-3-yl)piperazin-1-yl)methanone], the results for the 50% inhibitory concentration (IC50) (at human GST-CLK1 (129-end); in [2]; on TTK) were 0.301 to 1 µM, less than 0.1 µM and less than 0.1 µM, respectively. This molecule also returned an inhibition at 0.25 µM in the assay on human DYRK1A and Tau of 9.9%. The inhibition at 0.5 µM in the assay with human DYRK1A and Tau was determined as 11.2%. Besides, the inhibition at 1 µM with human DYRK1A and Tau worked out at 20.7%.
As to `COc1cc(S(=O)(=O)N2CCC(N3C[C@@H]4C[C@H]3CO4)CC2)ccc1Nc1cc(C2CC2)c2c(C(F)(F)F)c[nH]c2n1` [Example 240, N-(4-((4-((1S,4S)-2-oxa-5-azabicyclo[2.2.1]heptan-5-yl)piperidin-1-yl)sulfonyl)-2-methoxyphenyl)-4-cyclopropyl-3-(trifluoromethyl)-1H-pyrrolo[2,3-b]pyridin-6-amine], the IC50 in assay [1] was less than 0.1 µM; in assay [2], less than 0.1 µM; in assay [3], less than 0.1 µM; at LRRK2 (G2019S), 0.301 to 1 µM. Further, the 50% growth inhibitory concentration (GI50) in the assay on MDA-MB-231 cell line and with SHP-77 was 0.301 to 1 µM in each case. In the assay on human DYRK1A and Tau, this molecule registered an inhibition at 0.25 µM of 8.9%. Further, testing at 0.5 µM in the assay on human DYRK1A and Tau gave an inhibition of 16.5%. At 1 µM the inhibition with human DYRK1A and Tau was 36.3%.

The values are drawn from patent US12240844B2 (Voronoi, Inc., priority 2019, dated 2025).
